# Laboratory results published in EP4389746A2, “P2X3 RECEPTOR ANTAGONISTS” (Recordati Industria Chimica E Farmaceutica SPA, priority 2022, dated 2024).
# Target: T1, human P2X3 receptor (Homo sapiens, UniProt P56373)
# T1 construct: expressed in transfected cells; host or cells: CHO-K1
# T1 sequence (P56373 1-397): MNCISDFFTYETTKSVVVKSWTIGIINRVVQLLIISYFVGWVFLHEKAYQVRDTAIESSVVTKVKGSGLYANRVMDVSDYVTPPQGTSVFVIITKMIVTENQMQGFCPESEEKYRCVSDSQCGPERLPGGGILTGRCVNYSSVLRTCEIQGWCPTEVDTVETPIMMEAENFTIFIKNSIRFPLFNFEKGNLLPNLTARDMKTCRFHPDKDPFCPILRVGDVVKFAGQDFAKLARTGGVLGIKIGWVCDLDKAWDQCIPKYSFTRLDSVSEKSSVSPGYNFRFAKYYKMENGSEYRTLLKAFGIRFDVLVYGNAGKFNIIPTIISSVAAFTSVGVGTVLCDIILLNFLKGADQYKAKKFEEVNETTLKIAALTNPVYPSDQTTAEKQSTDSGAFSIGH
# Assay: Calcium luminescence measurement: human P2X3 receptor activity inhibition (CHO-K1 cells, photoprotein readout, FLEXSTATION)
# Type: cell-based
# Conditions: CHO-K1 cells co-expressing human P2X3 and Ca2+ sensitive photoprotein; agonist α,β-Met-ATP; read-out: h-P2X3 IC50
smiles,measurement,value
"CC(C)C1C(=O)N=C2c3ncc(N4CCOCC4)cc3N(Cc3ccc(Cl)cc3)C(=O)N21 (racemic) [Example 22, 6-[(4-Chlorophenyl)methyl]-8-(morpholin-4-yl)-3-(propan-2-yl)imidazo[1,2-c]pyrido[2,3-e]pyrimidine-2,5(3H,6H)-dione]",IC50,36.8 nM
